In article PMC9490041, “Determinants of affinity, specificity, and phase separation in a supramodule from Post-synaptic density protein 95” (iScience, 2022):
Where two headings read alike, the source gives them in different places. Ends that are not written are not given here.

Assays:
Experiment in all cases: FP displacement (competition) of FITC-15 AA CRIPT by library peptide, IC50 and Ki
[1] = target: PSG G322A G335A (PSD-95); settings: for IC50: read-out: IC50 (µM), PSG G322A G335A; for Ki: read-out: Ki (µM), PSG G322A G335A
[2] = target: PSG G322A (PSD-95); settings: for IC50: read-out: IC50 (µM), PSG G322A; for Ki: read-out: Ki (µM), PSG G322A
[3] = target: PSG G335A (PSD-95); settings: for IC50: read-out: IC50 (µM), PSG G335A; for Ki: read-out: Ki (µM), PSG G335A
[4] = FP displacement of FITC-15 AA CRIPT probe by acetylated PSD library peptide (P-13 to P0 plus extra N-terminal Y)
[5] = FP displacement of FITC-15 AA CRIPT probe by acetylated PSD library peptide
[6] = FP displacement of FITC-15 AA CRIPT probe by PSD library peptide, protein PSG G322A G335A
[7] = FP displacement of FITC-15 AA CRIPT probe by PSD library peptide, protein PSG G335A
[8] = FP displacement of FITC-15 AA CRIPT probe by PSD library peptide, protein PSG G322A

Row | IC50 [1, 4] | Ki [1, 5] | IC50 [2, 5] | Ki [2, 5] | IC50 [3, 5] | Ki [3, 5] | IC50 [1, 6] | IC50 [3, 7] | Ki [3, 7] | IC50 [2, 8] | Ki [2, 8] | Ki [1, 6] | Compound
1 | 880 µM | 304 µM | 867 µM | 376 µM | – | – | – | – | – | – | – | – | CC(=O)N[C@@H](Cc1ccc(O)cc1)C(=O)N[C@H](C(=O)N[C@@H](CCC(=O)O)C(=O)N[C@@H](CO)C(=O)N[C@@H](CC(C)C)C(=O)N[C@@H](CO)C(=O)N[C@@H](CO)C(=O)N[C@@H](CCC(=O)O)C(=O)N[C@@H](CO)C(=O)N[C@H](C(=O)N[C@@H](C)C(=O)N[C@H](C(=O)N[C@@H](CO)C(=O)N1CCC[C@H]1C(=O)N[C@H](C(=O)O)C(C)C)[C@@H](C)O)[C@@H](C)O)C(C)C [TNR16]
2 | 1810 µM | 625 µM | 1730 µM | 752 µM | 721 µM | 257 µM | – | – | – | – | – | – | CC(=O)N[C@@H](Cc1ccc(O)cc1)C(=O)N[C@@H](C)C(=O)N1CCC[C@H]1C(=O)N[C@@H](C)C(=O)N[C@H](C(=O)N[C@@H](CO)C(=O)N1CCC[C@H]1C(=O)N1CCC[C@H]1C(=O)N[C@@H](CCC(=O)O)C(=O)N[C@@H](CCCNC(=N)N)C(=O)N[C@@H](C)C(=O)N[C@@H](CC(C)C)C(=O)N[C@@H](CO)C(=O)N[C@@H](CCCCN)C(=O)N[C@@H](CC(C)C)C(=O)O)[C@@H](C)O [TUTLB]
3 | 881 µM | 305 µM | 651 µM | 282 µM | 1510 µM | 538 µM | – | – | – | – | – | – | Ac-YDVVAVYPNAKVELV [PDLI4]
4 | 1070 µM | 370 µM | – | – | – | – | – | – | – | – | – | – | Ac-YQETLFVGNDQVSEI [TM108]
5 | – | – | – | – | – | – | – | – | – | 914 µM | 396 µM | – | Ac-YVMQDESFPASKIEL [MAP1B]
6 | – | – | – | – | – | – | 1700 µM | – | – | – | – | 590 µM | Ac-YYETGSLSFAGDERI [SEZ6]

More lines, now with the values behind:

Row | Compound | IC50 [1, 4] | Ki [1, 5] | IC50 [2, 5] | Ki [2, 5] | IC50 [3, 5] | Ki [3, 5] | IC50 [1, 6] | IC50 [3, 7] | Ki [3, 7] | IC50 [2, 8] | Ki [2, 8] | Ki [1, 6]
7 | Ac-YEKAASREEPIEWEF [CUX1] | – | – | – | – | – | – | 1280 µM | 1360 µM | 485 µM | 1560 µM | 679 µM | –
8 | Ac-YEPPEPKKSRRSVLL [CDC42] | – | – | – | – | – | – | 1100 µM | 1180 µM | 421 µM | 952 µM | – | 381 µM
9 | Ac-YERAANREEALEWEF [CUX2] | – | – | – | – | – | – | – | – | – | 701 µM | 304 µM | 351 µM
10 | Ac-YQEQNKVLWIPASPL [DLG5] | 2830 µM | 979 µM | 1510 µM | 654 µM | 1020 µM | 365 µM | – | – | – | – | – | –
11 | Ac-YQSGPFIWIPSKEKL [DLG2] | 734 µM | 254 µM | 1420 µM | 615 µM | 2120 µM | 758 µM | – | – | – | – | – | –
